Reference: patent US20080146555A1, “Uses of Kinase Inhibitors and Compositions Thereof” (GPC Biotech, Inc, priority 2004, published 2008)
Structures can show the parent of a compound that is named as a salt. Where two headings read alike, the source gives them in different places.

Assays:
HCT-116 cells = assay: Clonogenic survival assay with HCT-116 cells; type: cell-based; details: Homo sapiens, 24 hour compound exposure, read-out: Clonogenic survival IC50, HCT-116
Experimental: This assay was used to determine the concentration of a compound that results in irreversible loss of viability after a specified period of exposure. Essentially, cells are exposed to compound for a period of […], and are then transferred to compound-free growth medium. After continued incubation in the compound-free medium for a number of days, the number of colonies recovered is counted as an estimate of the number of surviving cells.
Media (RPMI-1640, 10% FCS, pen/strep) was pre-warmed to 37° C. in a water bath. Cells were incubated and grown at 37° C., 5% CO2. Cells were recovered by trypsinization from sub-confluent plates and counted using a hemocytometer. 1×10^4 cells were plated in 25 mls of media in a 15 cm tissue culture dish. […] were set up for each test compound, and were incubated overnight at 37° C. The compound was diluted into media at 7 concentrations and the media on the cells was replaced with that containing the test compound. Two plates were set up for each concentration of the compound to be tested, as well as two control plates without compound. Plates were incubated as above for […], media was removed and replaced with fresh media, and the plates were incubated an additional 7 days and washed with PBS. Colonies were stained with crystal violet solution (0.4% crystal violet, 20% ethanol) for 5 minutes, washed twice with distilled water, and counted.

A2780 = assay: Calcein AM viability assay, A2780; type: cell-based; details: Homo sapiens
Experimental: Analogous cell viability assays against other cell lines were conducted as above. […] Protocol for the Calcein AM viability assay.
HCT-116 or IMR90 cells were recovered from sub-confluent plates by trypsinization and 1,000 or 4,000 cells, respectively, were plated in 24-well dishes and incubated overnight at 37° C., 5% CO2. HCT-116 cells were cultured in RPMI-1640, 10% FCS, and IMR90 cells were cultured in Minimum Essential Medium-alpha, 10% FCS. After overnight incubation to allow adherence, the media was aspirated from each well and replaced with media containing a test compound at a concentration from 0 to 250 nM, spanning a total of 7 doses. The plates were returned to the incubator and cultured for an additional 72 hours (3 days). […] After 72-hours incubation with the test compound, the cells were washed twice with 1×PBS, taking special care to remove all residual buffer.
A 5 μM Calcein AM solution was prepared by dissolving a 50 μg aliquot of Calcein (Molecular Probes catalog #C3100) in 50 μl DMSO. After the Calcein had completely dissolved (10 minutes at room temperature), it was diluted into 10 ml PBS. Calcein/PBS (0.5 ml) was added to each well. The plates were incubated for 75 minutes at 37° C. (protected from light) and the fluorescent signal was read on a fluorescent plate reader (excitation 485/20 and emission 530/25).

MEK1 = target: T1, MEK1 (Homo sapiens, UniProt Q02750); assay: MEK1 kinase assay; type: biochemical
T1 construct: purchased Upstate 14-429
Experimental: 1. Assay Dilution Buffer I (ADBI, Catalog #20-108): 20 mM MOPS, pH 7.2, 25 mM β-glycerol phosphate, 5 mM EGTA, 1 mM sodium orthovanadate, 1 mM dithiothreitol. • 2. Magnesium/ATP Cocktail (Catalog #20-113): 500 μM cold ATP and 75 mM magnesium chloride in ADBI. • 3. MEK1, active: Dilute to 0.5-5 ng/μl with ADBI containing 0.03% Brij-35 and 1 mg/ml BSA. Use 5 μl per assay point. • 4. MAP Kinase 2/Erk2, unactive (Catalog #14-198): Use 1 μg per assay point. • 5. MBP Substrate (Catalog #13-104): Prepare a 3.33 mg/ml stock solution with ADBI. Use 2.5 μl per assay for a final concentration of 0.33 mg/ml per assay point. • 6. Magnesium/ATP Cocktail (Catalog #20-113): 75 mM MgCl2 and 500 μM ATP in 20 mM MOPS, pH 7.2, 25 mM β-glycerol phosphate, 5 mM EGTA, 1 mM sodium orthovanadate, 1 mM dithiothreitol.
7. [γ-^32P]ATP: Stock 1 mCi/100 μl (3000 Ci/mmol, obtained from Perkin Elmer, Catalog #BLU002A). Make 10 μl aliquots (100 μCi/vial). Before starting the assay, dilute the Magnesium/ATP Cocktail 1:1 with sterile, distilled water. Then dilute an aliquot of [γ-^32P]ATP to 1 μCi/μl with 90 μl of the diluted Magnesium/ATP Cocktail. […]
• 1. Add 1 μl of ADBI to a microcentrifuge tube. • 2. Add 5 μl of Magnesium/ATP cocktail. • 3. Add 5 μl of MEK1, active (2.5-25 ng) • 4. Add 4 μl (1 μg) of unactive MAP Kinase 2/Erk 2. • 5. Incubate at 30° C. for 30 minutes. • 6. Remove 1 μl of this mixture and add to Stage Two component mixture.
• 1. Add 12.5 μl of ADBI. • 2. Add 2.5 μl of MBP stock solution. • 3. Add 10 μl of diluted [γ-^32P] ATP. • 4. Incubate for at 30° C. 10 minutes. • 5. Transfer a 20 μl aliquot onto the center of a 2 cm×2 cm P81 paper square. • 6. Wash the paper squares three times with 0.75% phosphoric acid for 5 minutes per wash. • 7. Wash the paper squares once with acetone for five minutes. • 8. Transfer the paper squares to a scintillation vial and add 5 ml scintillation cocktail. • 9. Read in scintillation counter. Compare cpm of enzyme samples to cpm of control samples that contain no enzyme (background control).

cells = assay: Apoptosis detection (TUNEL staining, PARP cleavage); type: cell-based; details: 72 hours at 5× of the IC50 concentration
Experimental: In addition, PARP cleavage was also observed. Similarly, cells incubated with B16 are 90% TUNEL positive. Such assays can be used for apoptosis detection in any cells in contact with the subject compounds.

[1] = kinase panel, 10 μM ATP, read-out: MAPK 1 / MEK1 IC50
[2] = read-out: MAP2K1 Inhibition (IC50)

T1 sequence (Q02750 whole entry, species assumed): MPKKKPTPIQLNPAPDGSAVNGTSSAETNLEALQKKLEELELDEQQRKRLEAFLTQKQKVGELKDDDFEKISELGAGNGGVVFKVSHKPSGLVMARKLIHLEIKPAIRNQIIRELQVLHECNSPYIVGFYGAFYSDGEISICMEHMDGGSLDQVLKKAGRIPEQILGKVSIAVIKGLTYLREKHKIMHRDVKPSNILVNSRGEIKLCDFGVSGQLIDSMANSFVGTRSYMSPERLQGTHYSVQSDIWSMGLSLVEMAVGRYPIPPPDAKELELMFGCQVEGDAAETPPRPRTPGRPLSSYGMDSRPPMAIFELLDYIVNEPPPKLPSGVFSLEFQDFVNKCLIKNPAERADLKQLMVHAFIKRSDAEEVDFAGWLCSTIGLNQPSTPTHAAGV

Row | SMILES | IC50 (HCT-116 cells) [nM] | IC50 (A2780) [nM] | IC50 (MEK1; [1]) [nM] | IC50 (MEK1; [2]) [nM] | TUNEL positive cells (cells) | PARP cleavage (cells)
1 | COCCN1CCN(Cc2ccc(-c3n[nH]c4c3C(=O)c3c(NC(=O)NN5CCOCC5)cccc3-4)cc2)CC1 [Compound B16, N-[3-(4-{[4-(2-methoxyethyl)piperazinyl]methyl}phenyl)-4-oxoindeno[2,3-d]pyrazol-5-yl](morpholin-4-ylamino)carboxamide dihydrochloride] | < 100 | < 10 | < 100 | < 100 | 90% | 
2 | CC(C)N1CCN(C(=O)COc2ccc(-c3n[nH]c4c3C(=O)c3c(NC(=O)NN5CCOCC5)cccc3-4)cc2)CC1 [Compound A37] | < 50 | < 10 | 10 to 100 | < 50 | about 60% | observed
